The values that follow come from ChEMBL document CHEMBL1135499, “Further characterization of structural requirements for ligands at the dopamine D(2) and D(3) receptor: exploring the thiophene moiety” (J Med Chem, 2002).

The target in data set [1] is D(2) dopamine receptor (Homo sapiens, UniProt P14416). Put plainly: biochemical.
Description: In vitro binding affinity at human Dopamine receptor D2 expressed in CHO K1 cells was measured by its ability to displace [3H]- N-0437
In data set [2] the target is D(3) dopamine receptor (Homo sapiens, UniProt P35462). Put plainly: biochemical.
Description: In vitro binding affinity at human Dopamine receptor D3 expressed in CHO K1 cells was measured by its ability to displace [3H]spiperone
Data set [3] can be described thus: Oral bioavailability in rat. The format is ADME, organism-based. The following applies: in vivo.

Sequence of D(3) dopamine receptor (P35462 whole entry): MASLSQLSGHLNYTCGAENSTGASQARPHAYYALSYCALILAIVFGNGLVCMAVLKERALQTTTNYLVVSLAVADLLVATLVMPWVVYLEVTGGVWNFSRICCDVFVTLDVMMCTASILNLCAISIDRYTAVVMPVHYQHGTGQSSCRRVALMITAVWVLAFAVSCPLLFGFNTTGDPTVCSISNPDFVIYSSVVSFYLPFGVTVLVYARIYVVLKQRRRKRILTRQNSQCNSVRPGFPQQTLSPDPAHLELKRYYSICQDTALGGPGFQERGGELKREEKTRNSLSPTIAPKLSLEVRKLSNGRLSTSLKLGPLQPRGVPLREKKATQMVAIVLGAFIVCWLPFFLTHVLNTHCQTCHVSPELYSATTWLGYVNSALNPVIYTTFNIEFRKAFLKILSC
Sequence of D(2) dopamine receptor (P14416 whole entry): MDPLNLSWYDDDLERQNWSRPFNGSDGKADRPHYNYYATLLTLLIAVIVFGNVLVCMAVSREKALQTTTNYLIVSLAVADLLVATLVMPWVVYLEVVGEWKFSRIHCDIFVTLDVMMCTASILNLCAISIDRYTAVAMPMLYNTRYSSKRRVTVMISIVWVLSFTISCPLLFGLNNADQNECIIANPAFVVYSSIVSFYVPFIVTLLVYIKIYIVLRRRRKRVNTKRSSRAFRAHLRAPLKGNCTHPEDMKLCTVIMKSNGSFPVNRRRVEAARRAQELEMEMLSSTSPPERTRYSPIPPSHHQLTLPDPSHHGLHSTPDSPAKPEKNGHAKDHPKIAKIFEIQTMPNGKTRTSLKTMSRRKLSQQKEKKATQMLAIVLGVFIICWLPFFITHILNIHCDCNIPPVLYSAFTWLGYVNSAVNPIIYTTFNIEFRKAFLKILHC

For the compound `CCCN(CCC)[C@@H]1Cc2cccc(O)c2C[C@H]1C`, the Ki was 14 nM in data set [1] and 0.54 nM in data set [2].

Consider `Oc1ccc2c(c1)C1OCCN(CCc3ccccc3)C1CC2` (racemic), for which the Ki in data set [1] was more than 3680 nM; in data set [2], 1570 nM.

For `CCCN(CCc1ccsc1)CCc1cccs1`, the Ki is 1080 nM in data set [1] and 117 nM in data set [2].

Take `c1cc2c(s1)CCC1NCCOC21` (stereo unspecified): the inhibition constant (Ki) in data set [1] is more than 4780 nM; in data set [2], 3000 nM.

In data set [3], `CCCN(CCC)C1CCc2sccc2C1` (stereo unspecified) showed a bioavailability of more than 10%. Also, the inhibition constant (Ki) in data set [1] stood at 20 nM; in data set [2], 40 nM.

In the case of `Oc1ccc2c(c1)C1OCCN(CCc3cccs3)C1CC2` (racemic), the Ki stood at 3680 nM in data set [1] and 83 nM in data set [2].

In data set [3], `CCCN(CCC)C1CCc2ccsc2C1` (stereo unspecified) displayed a bioavailability of 10%. Besides, the Ki in data set [1] was found to be 27 nM; in data set [2] it was 28 nM.

Regarding `CCCN(CCc1ccsc1)CCc1ccsc1`, the Ki in data set [1] is 439 nM; in data set [2], 108 nM.

With `CCCN(CCC)CC1CCc2ccsc2C1` (stereo unspecified), the figures for the Ki in data set [1] and in data set [2] were 3110 nM and 60 nM, respectively.

Turning to `CCCN(CCC)CC1CCc2sccc2C1` (stereo unspecified), the Ki in data set [1] is 2040 nM; in data set [2], 247 nM.

In the case of `CCCN1CC(c2ccccc2)OC2c3cc(O)ccc3CCC21` (racemic), the Ki worked out at 375 nM in data set [1] and 12 nM in data set [2].

On to `CCCN1CCOC2c3ccsc3CCC21` (stereo unspecified), for which the Ki came to 630 nM in data set [1] and 240 nM in data set [2].

A word on the Ki: it is a dissociation constant, usually derived from enzyme kinetics or from competition with a known ligand. The low end stands for a stronger hold on the target, the high end for a looser hold on the target. The term bioavailability denotes the share of a dose that reaches the circulation, judged against a reference dose that is usually intravenous. A lower bioavailability goes with little systemic uptake.
